The values that follow come from patent US4784999A, “Novel treatment” (Beecham Wuelfing GmbH & Co. KG, priority 1986, dated 1988).

Structures are written as SMILES.

Assay [1] concerns Triethyltin-induced cerebral oedema. Description: Triethyltin-induced cerebral oedema in the rat. Format: in vivo. The conditions noted are these: 2×50 mg/kg orally, twice daily for 5 days of triethyltin intoxication; Wistar rats; brain water content; p<0.05 (student's t-test). The method, then:
The cerebral oedema is induced by oral administrations repeated for 5 consecutive days--one administration per day--of triethyltin chloride at a dose of 2 mg/kg. The test compound is also administered orally twice daily as aqueous solution or suspension at a dose of 1 ml/100 g body-weight; these administrations are given during the 5 days of intoxication with tin. Three groups of 10 male specific pathogen-free (SPF) Wistar rats of 280±10 g body-weight are used:
1 group intoxicated with triethyltin
1 group intoxicated with triethyltin and treated with the studied compound The rats are killed on the evening of the fifth day; the brain is removed, weighed fresh and after desiccation to constant weight and the water content of each brain is calculated [H2 O]=fresh weight-dry weight.
The following are then calculated the mean water content (M+Sm %) of each group; the protection index P due to the administered compound: [formula]

Assay [2] deals with recall latency in the gerbil following transient forebrain ischaemia. Description: Gerbil Ischaemic Deficit Passive Avoidance Test. It is filed as in vivo, Mongolian gerbils. The conditions noted are these: Ischaemia and Test Compound, 10 mg/kg p.o., seven administrations; gerbils after 5 min bilateral carotid ligation; significantly different from ischaemic controls (p<0.05). The method, then:
Mongolian gerbils were conditioned to avoid entering a dark compartment by means of a footshock (maximally 50 V, 2 s duration) received when entering from the light section of a two compartment box. Recollection of the footshock was examined 24 h later by replacing the gerbils in the two compartment box and measuring the recall latency, the time taken to re-enter the dark compartment.
A learning or memory deficit was induced in the gerbils by a transient (5 min) bilateral carotid artery ligation, performed 24 h prior to conditioning, under light hexobarbital anaesthesia.
Compounds, being examined for an effect on learning or memory in gerbils which had undergone carotid occlusion, were administered seven times during the experiment The initial administration was during the period of forebrain ischaemia, the third and seventh administrations were 10 min prior to conditioning and recall testing, respectively, and the remainder were given at intermediate time points.
A long recall latency indicates good information acquisition or retrieval.

Assay [3] has as its system rat ischaemic gastrocnemius muscle. As to the kind of experiment: Oxygen tension (pO2) of rat ischaemic gastrocnemius muscle. Format: in vivo. The following applies: 0.5 mg/kg administered intravenously; ischaemic hindlimb gastrocnemius muscle, anaesthetized rats; n=12; p<0.01 signed rank test.
For assay [4], the target named is cAMP phosphodiesterase of rat brain. As to the kind of experiment: Inhibitory activity on cAMP phosphodiesterase of rat brain (Dixon plot). It is filed as biochemical. The conditions noted are these: homogenates of rat brain; 0.31 μM cyclic AMP as substrate; extrapolated from Dixon plot; read-out: apparent Ki. As to the method: The activity of cyclic AMP phosphodiesterase in homogenates of rat brain was measured in the presence of various concentrations of the compound 1,3-di-n-butyl-7-(2-oxypropyl)xanthine using 0.31 μM cyclic AMP as substration The reciprocal of the reaction rate was plotted on the y axis against each concentration of the compound on the x axis (Dixon plot). The apparent Ki value was estimated by extrapolating the steeper linear portion of the Dixon plot to the x axis and obtaining the negative intercept on the x axis.

As for `CCCCn1c(=O)c2c(ncn2CC(C)=O)n(CCCC)c1=O` [1,3-di-n-butyl-7-(2-oxypropyl)xanthine], the “protection index P” value in assay [1] is 65%. Further, in assay [2], the “Percentage of animals with recall latencies >60s” value is 36. The “mean (±SEM) increase in pO2” value in assay [3] is reported as 5.7±2.1 torr. Further, the Ki in assay [4] is 64 µM.
